Assay results reported in patent US5208237A, “7-oxypropylsulfonamido-imidazo[4,5-b]quinolin-2-ones” (Bristol-Meyers Squibb Company, priority 1992, dated 1993).
Values after ≈ are worked out from the molar mass of the structure shown. Counter-ions that a name gives are not always drawn. Like-named read-outs stand apart in the source and are kept apart here.

What was measured:
[1] = test system: human blood platelets; assay: In vitro inhibition of ADP-induced human platelet aggregation in platelet-rich plasma (aggregometer method of Born); details: for IC50: Homo sapiens, Platelet, read-out: IC50 vs ADP in human PRP, human PRP, 3 min preincubation at about 37° C., final ADP 5.86 mM (so in the source)
Experimental: The aggregometer method of Born, G. V. R., J. Physiol., (London), 162, 67-68, (1962) as modified by Mustard, J. F., et al., J. Lab. Clin. Med., 64, 548-599, (1964) was used to assess the in vitro activity of the various compounds as to the inhibition of adenosine diphosphate (ADP) and collagen-induced platelet aggregation. The human volunteer donor's arm is cleansed with 70% ethyl alcohol. A sterile 20 ml syringe and needle are used to withdraw 20 ml of blood. The blood is immediately added to a test tube containing 3.8% sodium citrate to prevent clotting (1 part citrate to 9 parts blood).
Platelet rich plasma (PRP) was separated by centrifugation for 10 minutes at 1000 rpm (140xg) from citrated (3.8%) human blood. All glassware used for preparation of PRP is silicon treated. ADP in final concentration of 0.5 μg/mL or 0.05 mL of a collagen suspension prepared according to the method described by Evans, G., et al., J. Exp. Med., 128, 877-894, (1968) was used to induce aggregation. The various compounds tested were dissolved in dimethylsulfoxide (DMSO) so that 5 μl added to the platelet rich plasma would yield the desired test concentration. Vehicle control trials were done and compared with aggregation induced in platelet rich plasma containing various concentrations of the test compounds. Dose response curves were obtained and Inhibitor Concentration (IC50) values calculated.
The test compounds were incubated at about 37° C. in PRP for about 3 minutes prior to the addition of sufficient ADP to provide a final ADP concentration of 5.86 mM.

[2] = Aqueous solubility; type: physicochemical; details: water
[3] = not marked as free base, read-out: Aqueous Solubility
[4] = free base (* footnote), read-out: Aqueous Solubility of Free Base

| SMILES | IC50 [1] [µg/mL] | solubility [2, 3] [µg/mL] | solubility [2, 4] [µg/mL] | IC50 vs ADP in human PRP ([1]; human PRP, 3 min preincubation at about 37° C., final ADP 5.86 mM (so in the source), dihydrochloride) [µg/mL] |
| --- | --- | --- | --- | --- |
| Cl.Cl.O=c1[nH]c2cc3cc(OCCCS(=O)(=O)N4CCN(CC5CCCCC5)CC4)ccc3nc2[nH]1 [Compound 10g, 1-[[3-[(2,3-Dihydro-2-oxo-1H-imidazo[4,5-b]quinolin-7-yl)oxy]propyl]sulfonyl]-4-(cyclohexylmethyl) piperazine dihydrochloride] | 0.064 | > 20000 |  |  |
| Cl.Cl.O=c1[nH]c2cc3cc(OCCCS(=O)(=O)N4CCN(Cc5ccc(Cl)cc5)CC4)ccc3nc2[nH]1 [Compound 10e, 1-[[3-[(2,3-Dihydro-2-oxo-1H-imidazo[4,5-b]quinolin-7-yl)oxy]propyl]sulfonyl]-4-(4-chlorophenylmethyl) piperazine dihydrochloride] | 0.32 | > 20000 |  |  |
| CCC(CC)CN1CCN(S(=O)(=O)CCCOc2ccc3nc4[nH]c(=O)[nH]c4cc3c2)CC1 [Compound 10l, 1-[[3-(2,3-Dihydro-2-oxo-1H-imidazo-[4,5-b]quinolin-7-yl)oxy]propyl]sulfonyl]-4-(2-ethylbut-1-yl)piperazine dihydrochloride] | 0.09 | > 10000 |  |  |
| Cl.Cl.O=c1[nH]c2cc3cc(OCCCS(=O)(=O)N4CCN(Cc5cccc(C(F)(F)F)c5)CC4)ccc3nc2[nH]1 [Compound 10m, 1-[[3-[(2,3-Dihydro-2-oxo-1H-imidazo[4,5-b]quinolin-7-yl)oxy]propyl]sulfonyl]-4-[(3-trifluoromethylphenyl)methyl]piperazine dihydrochloride] | 0.2 | ~2000 |  |  |
| O=CN1CCN(S(=O)(=O)CCCOc2ccc3nc4[nH]c(=O)[nH]c4cc3c2)CC1 [Compound 7, 3-[[(2,3-Dihydro-2-oxo-1H-imidazo[4,5-b]quinolin-7-yl)oxy]propyl]sulfonyll-1-piperazinecarboxaldehyde] | 5.6 (≈ 13.4 µM) |  | < 1000 |  |
| Cl.Cl.O=c1[nH]c2cc3cc(OCCCS(=O)(=O)N4CCN(Cc5ccccc5)CC4)ccc3nc2[nH]1 [Compound 10c, 1-[[3-[(2,3-Dihydro-2-oxo-1H-imidazo[4,5-b]quinolin-7-yl)oxy]propyl]sulfonyl]-4-(phenylmethyl)piperazine dihydrochloride] | 0.039 | > 20000 |  |  |
| O=c1[nH]c2cc3cc(OCCCS(=O)(=O)N4CCNCC4)ccc3nc2[nH]1 [Compound 10a, 1-[[3-[(2,3-Dihydro-2-oxo-1H-imidazo[4-5-b]quinolin-7-yl)oxy]propyl]sulfonyl]piperazine dihydrochloride] |  | > 20000 |  | 6.4 |
| Cl.O=c1[nH]c2cc3cc(OCCCS(=O)(=O)N4CCN(c5nc6ccccc6s5)CC4)ccc3nc2[nH]1 [Compound 10i, 1-(Benzothiazol-2-yl)-4-[[3-[(2,3-dihydro-2-oxo-1H-imidazo[4,5-b]quinolin-7-yl)oxy]propyl]sulfonyl]piperazine hydrochloride] | 2.8 | ~1000 |  |  |
| O=c1[nH]c2cc3cc(OCCCS(=O)(=O)N4CCN(CCc5ccccc5)CC4)ccc3nc2[nH]1 [Compound 10k, 3-[[(2,3-Dihydro-2-oxo-1H-imidazo[4,5-b]quinolin-7-yl)oxy]propyl]sulfonyl]-4-(2-phenylethyl)piperazine dihydrochloride] | 0.6 | < 10000 |  |  |
| O=c1[nH]c2cc3cc(OCCCS(=O)(=O)N4CCN(Cc5ccccc5)CC4)ccc3nc2[nH]1 [Compound 9c] | 0.059 (≈ 0.123 µM) |  | ~1000 (≈ 2080 µM) |  |
| Cl.Cl.O=c1[nH]c2cc3cc(OCCCS(=O)(=O)N4CCN(CCC5CCCCC5)CC4)ccc3nc2[nH]1 [Compound 10j, 1-[[3-[(2,3-Dihydro-2-oxo-1H-imidazo[4,5-b]quinolin-7-yl)oxy]propyl]sulfonyl]-4-(2-cyclohexylethyl) piperazine dihydrochloride] | 1.2 | < 5000 |  |  |
| Cl.Cl.O=c1[nH]c2cc3cc(OCCCS(=O)(=O)N4CCN(c5nc6ccccc6o5)CC4)ccc3nc2[nH]1 [Compound 10h, 1-(Benzoxazol-2-yl)-4-[[3-[(2,3-dihydro-2-oxo-1H-imidazo[4,5-b]quinolin-7-yl)oxy]propyl]sulfonyl]piperazine dihydrochloride] | 1.4 | > 20000 |  |  |
| O=c1[nH]c2cc3cc(OCCCS(=O)(=O)N4CCNCC4)ccc3nc2[nH]1 [Compound 8, 1-[[3-[(2,3-Dihydro-2-oxo-1H-imidazo[4,5-b]quinolin-7-yl)oxy]propyl]sulfonyl]piperazine] | 7.2 (≈ 18.4 µM) |  | ~1000 (≈ 2550 µM) |  |
| Cl.Cl.O=c1[nH]c2cc3cc(OCCCS(=O)(=O)N4CCN(Cc5ccc(F)cc5)CC4)ccc3nc2[nH]1 [Compound 10d, 1-[[3-[(2,3-Dihydro-2-oxo-1H-imidazo[4,5-b]quinolin-7-yl)oxy]propyl]sulfonyl]-4-(4-fluorophenylmethyl) piperazine dihydrochloride] | 0.16 | > 20000 |  |  |
| COc1ccc(CN2CCN(S(=O)(=O)CCCOc3ccc4nc5[nH]c(=O)[nH]c5cc4c3)CC2)cc1 [Compound 10f, 1-[[3-[(2,3-Dihydro-2-oxo-1H-imidazo[4,5-b]quinolin-7-yl)oxy]propyl]sulfonyl]-4-[(4-methoxyphenylmethyl)piperazinedihydrochloride] | 0.27 | > 20000 |  |  |
